Consider 29 compounds from paper PMC7073184, “The Major Cat Allergen Fel d 1 Binds Steroid and Fatty Acid Semiochemicals: A Combined In Silico and In Vitro Study” (International Journal of Molecular Sciences, 2020).

For data set [1] the following is noted: ref PubChem and ChemSpider; cited from earlier work.
Data set [2] has as its target T1, rFel d 1 (Felis catus, UniProt P30438+P30440). Kind of data set: 1-NPN binding to rFel d 1 (fluorescence titration). Also noted: species or system cat.
Protocol: To a 1-µM solution of the protein in 50 mM Tris-HCl, pH 7.4, aliquots of 1 mM solution of 1-NPN in methanol were added to final concentrations of 1–20 µM. (a) The representative emission curves experimentally obtained. […] (b) The saturation binding curve obtained from the average of three experiments.
N-Phenyl-1-naphthylamine (1-NPN) was used as a non-polar fluorescent probe in competitive binding experiments with the ligands (Sigma, France) to investigate binding efficiency of semiochemical analogs with pure rFel d 1 (INDOOR Biotechnologies, UK) [30]. The fluorescence experiments were performed on an FP-750 spectrofluorometer (JASCO, Japan) instrument at 25 °C in a right-angle configuration with a 1 cm light path fluorimeter quartz cuvette and 5-nm slits for both excitation and emission. The probe 1-NPN was excited at 337 nm and emission spectra were recorded between 380 and 450 nm, at 25 °C. The protein was dissolved in 50 mM Tris-HCl, pH 7.4, and ligands were added as 1 mM methanol solutions.
The binding of 1-NPN to rFel d 1 was tested at two protein concentrations (1 µM and 2 µM) by titrating the protein solution with aliquots of a 1-mM solution of 1-NPN in methanol to final concentrations of 1–20 µM. The bound ligand was evaluated from the values of fluorescence intensity assuming that the protein was 100% active, with a stoichiometry of 1:1 protein: ligand. […]
Data set [3] concerns the target T1, rFel d 1. Put plainly: 1-NPN displacement screening (fluorescence). Type of data set: binding, cat. The note with it: 1 µM rFel d 1, 1 μM 1-NPN, 2 µM competitive ligand. As to the method: (§1) N-Phenyl-1-naphthylamine (1-NPN) was used as a non-polar fluorescent probe in competitive binding experiments with the ligands (Sigma, France) to investigate binding efficiency of semiochemical analogs with pure rFel d 1 (INDOOR Biotechnologies, UK). The fluorescence experiments were performed on an FP-750 spectrofluorometer (JASCO, Japan) instrument at 25 °C in a right-angle configuration with a 1 cm light path fluorimeter quartz cuvette and 5-nm slits for both excitation and emission. The probe 1-NPN was excited at 337 nm and emission spectra were recorded between 380 and 450 nm, at 25 °C. The protein was dissolved in 50 mM Tris-HCl, pH 7.4, and ligands were added as 1 mM methanol solutions.
(§2) Semiochemicals were first screened for their capabilities to bind rFel d 1 using 1 µM of rFel d 1, 1 μM of 1-NPN, and 2 µM of a competitive ligand. […] IC50 was graphically determined from the dose–response curve of each competitor ligand.

The target of data set [4] is T1, rFel d 1. Kind of data set: Competitive binding assay with the fluorescent probe 1-NPN. Also noted: species or system cat. The note with it: for IC50: 1 µM rFel d 1, 2 μM 1-NPN, 25 °C, 50 mM Tris-HCl pH 7.4, competitor 0–16 μM; for Kd: calculated from IC50 with K1-NPN […]. Here is the method: Figure 2 Competitive binding of selected fatty acids (a) and steroids (b) to rFel d 1. […] Fluorescence of probe-protein complexes in the absence of a competitor was normalized to 100%.
as §1, §2

Where two headings read alike, the source gives them in different places.

T1 sequence (P30440 18-109): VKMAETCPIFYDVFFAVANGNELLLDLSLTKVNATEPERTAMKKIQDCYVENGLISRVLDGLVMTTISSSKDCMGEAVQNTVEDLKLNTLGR
T1 sequence (P30438 23-92): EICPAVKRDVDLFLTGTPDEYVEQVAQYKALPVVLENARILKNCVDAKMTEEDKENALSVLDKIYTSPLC

On to `c1ccc(Nc2cccc3ccccc23)cc1` [1-NPN, N-phenyl-1-naphthylamine, reference compound], for which, in data set [1], the “Topological Polar Surface Area” value is recorded as 12 Å². Besides, the Kd at rFel d 1 [2] (1 µM rFel d 1, 50 mM Tris-HCl pH 7.4, 1-NPN 1–20 µM, average of three experiments, read-out: dissociation constant of 1-NPN (GraphPad)) is 5.8 µM; on rFel d 1 [2] (1 µM rFel d 1, Scatchard plot, read-out: dissociation constant K1-NPN (Scatchard analysis)) it was 4.8 µM.
For `C[C@]12CCC(=O)C=C1CC[C@@H]1[C@@H]2CC[C@]2(C)C(=O)CC[C@@H]12` [Androstenedione], the “Topological Polar Surface Area” value in data set [1] was 34.1 Å². The “1-NPN Displacement Screening” value at rFel d 1 [3] is recorded as “Yes”.
`C[C@]12CC[C@@H](O)C[C@@H]1CC[C@@H]1[C@@H]2CC[C@]2(C)C=CC[C@@H]12` [Androstenol]: the “Topological Polar Surface Area” value in data set [1] is recorded as 20.2 Å². Also, the “1-NPN Displacement Screening” value at rFel d 1 [3] is “No”.
For `CC12C=CCC1C1CCC3CC(=O)CCC3(C)C1CC2` (centres unmarked) [Androstenone], the “Topological Polar Surface Area” value in data set [1] is 17.1 Å². The IC50 (usually the concentration needed to halve the response being measured) at rFel d 1 [4] (read-out: IC50) is 3.1 µM. Also, the Kd at rFel d 1 [4] (read-out: Kd) was 2.4 µM. Moreover, the “1-NPN Displacement Screening” value on rFel d 1 [3] is “Yes”.
With `CCCCCCCCCC(=O)O` [Capric acid], the “1-NPN Displacement Screening” value on rFel d 1 [3] is listed as “No”.
For the compound `C[C@]12C[C@H](O)[C@H]3[C@@H](CCC4=CC(=O)CC[C@@]43C)[C@@H]1CC[C@@H]2C(=O)CO` [Corticosterone], the “Topological Polar Surface Area” value in data set [1] is reported as 74.6 Å². Also, the “1-NPN Displacement Screening” value on rFel d 1 [3] is “No”.
For `C[C@]12CC[C@H](O)CC1=CC[C@@H]1[C@@H]2CC[C@]2(C)C(=O)CC[C@@H]12` [Dehydroepiandrosterone (DHEA), Dehydroepiandrosterone], in data set [1], the “Topological Polar Surface Area” value is reported as 37.3 Å². For the same compound, on rFel d 1 [3], the “1-NPN Displacement Screening” value is “Yes”.
Turning to `C[C@]12CCC(=O)C[C@@H]1CC[C@@H]1[C@@H]2CC[C@]2(C)[C@@H](O)CC[C@@H]12` [Dihydrotestosterone], in data set [1], the “Topological Polar Surface Area” value is 37.3 Å². In addition, the “1-NPN Displacement Screening” value on rFel d 1 [3] is given as “No”.
`CCCCCCCCCCCC=O` [Dodecanal]: the “Topological Polar Surface Area” value in data set [1] is given as 17.1 Å². Further, the “1-NPN Displacement Screening” value at rFel d 1 [3] is on record as “No”.
As for `CCCCCCCCCCCCO` [Dodecanol], the “Topological Polar Surface Area” value in data set [1] is listed as 20.2 Å². Besides, the “1-NPN Displacement Screening” value at rFel d 1 [3] is listed as “No”.
Regarding `C[C@]12CC[C@@H]3c4ccc(O)cc4CC[C@H]3[C@@H]1CC[C@@H]2O` [Estradiol], in data set [1], the “Topological Polar Surface Area” value was 40.5 Å². In addition, at rFel d 1 [3], the “1-NPN Displacement Screening” value is “Yes”.
Consider `C[C@]12CC[C@@H]3c4ccc(O)cc4CC[C@H]3[C@@H]1CCC2=O` [Estrone], for which the “1-NPN Displacement Screening” value at rFel d 1 [3] is “Yes”.
In the case of `CCCCCCCCCCCC(=O)OCC` [Ethyl Laurate], the “Topological Polar Surface Area” value in data set [1] is 26.3 Å². Moreover, the “1-NPN Displacement Screening” value on rFel d 1 [3] was “No”.
On to `CCCCCCCCCCCCCCCC(N)=O` [Hexadecanamide], for which the “Topological Polar Surface Area” value in data set [1] is recorded as 43.1 Å².
Consider `CC(=O)[C@@]1(O)CC[C@H]2[C@@H]3CCC4=CC(=O)CC[C@]4(C)[C@H]3CC[C@@]21C` [Hydroxyprogesterone], for which the “Topological Polar Surface Area” value in data set [1] was 54.4 Å². Further, the “1-NPN Displacement Screening” value at rFel d 1 [3] is listed as “Yes”.
For `CC(C)C(=O)O` [Isobutyric acid], in data set [1], the “Topological Polar Surface Area” value is reported as 37.3 Å².
On to `CCCCCCCCCCCC(=O)O` [Lauric acid], for which the “Topological Polar Surface Area” value in data set [1] is recorded as 37.3 Å². Also, on rFel d 1 [4], the IC50 stood at 3.3 µM and the Kd is 2.6 µM. Also, at rFel d 1 [3], the “1-NPN Displacement Screening” value was “Yes”.
For `CCCCC/C=C\C/C=C\CCCCCCCC(=O)O` [Linoleic acid], the “Topological Polar Surface Area” value in data set [1] is listed as 37.3 Å². Also, on rFel d 1 [4], the IC50 came to 10.1 µM and the Kd is 7.8 µM. Further, the “1-NPN Displacement Screening” value on rFel d 1 [3] was “Yes”.
Consider `CCCCCCCCCCCCCCCC(=O)OC` [Methyl Palmitate], for which the “Topological Polar Surface Area” value in data set [1] is recorded as 26.3 Å². Besides, the “1-NPN Displacement Screening” value at rFel d 1 [3] is listed as “No”.
Regarding `CCCCCCCCCCCCCC(=O)O` [Myristic acid], in data set [1], the “Topological Polar Surface Area” value was 37.3 Å². Further, on rFel d 1 [4], the 50% inhibitory concentration (IC50) turned out to be 14.4 µM and the Kd is 11.1 µM. At rFel d 1 [3], the “1-NPN Displacement Screening” value is given as “Yes”.
In the case of `CCCCCCCCC(N)=O` [Nonanamide], the “Topological Polar Surface Area” value in data set [1] was 43.1 Å².
Regarding `CCCCCCCCCCCCCCCCCC(N)=O` [Octadecanamide], the “Topological Polar Surface Area” value in data set [1] is on record as 43.1 Å².
For the compound `CCCCCCCC/C=C\CCCCCCCC(=O)O` [Oleic acid], the “Topological Polar Surface Area” value in data set [1] was 37.3 Å². In addition, on rFel d 1 [4], the IC50 amounted to 10 µM and the Kd is 7.7 µM. At rFel d 1 [3], the “1-NPN Displacement Screening” value is “Yes”.
On to `CCCCCCCCCCCCCCCC(=O)O` [Palmitic acid], for which the “Topological Polar Surface Area” value in data set [1] was 37.3 Å². Further, at rFel d 1 [4] (competitive binding with 1-NPN, among the fatty acids), the “affinity to rFel d 1 in words” value is given as “weakest ligand”. Further, at rFel d 1 [3], the “1-NPN Displacement Screening” value was “Yes”.
With `CC(=O)[C@H]1CC[C@H]2[C@@H]3CC=C4C[C@@H](O)CC[C@]4(C)[C@H]3CC[C@]12C` [Pregnenolone], in data set [1], the “Topological Polar Surface Area” value is given as 37.3 Å². Moreover, the IC50 at rFel d 1 [4] (read-out: IC50) worked out at 13.1 µM. Also, the Kd at rFel d 1 [4] (read-out: Kd) was 10.1 µM. Besides, the “1-NPN Displacement Screening” value at rFel d 1 [3] is “Yes”.
For `CC(=O)[C@H]1CC[C@H]2[C@@H]3CCC4=CC(=O)CC[C@]4(C)[C@H]3CC[C@]12C` [Progesterone], the “Topological Polar Surface Area” value in data set [1] is listed as 34.1 Å². Further, at rFel d 1 [4], the IC50 worked out at 13.6 µM and the Kd was 10.5 µM. In addition, the “1-NPN Displacement Screening” value at rFel d 1 [3] is on record as “Yes”.
As for `C[C@]12CC[C@H]3[C@@H](CCC4=CC(=O)CC[C@@]43C)[C@@H]1CC[C@@H]2O` [Testosterone], the “Topological Polar Surface Area” value in data set [1] is listed as 37.3 Å². Besides, the “1-NPN Displacement Screening” value at rFel d 1 [3] was “Yes”.
For `CCCCCCCCCCCCCCO` [Tetradecanol], the “Topological Polar Surface Area” value in data set [1] is on record as 20.2 Å². At rFel d 1 [3], the “1-NPN Displacement Screening” value was “No”.
Deoxycorticosterone: the “Topological Polar Surface Area” value in data set [1] was 54.4 Å². In addition, the “1-NPN Displacement Screening” value at rFel d 1 [3] was “No”.
